Data taken from ChEMBL document CHEMBL1134129, “Novel and potent tacrine-related hetero- and homobivalent ligands for acetylcholinesterase and butyrylcholinesterase” (Bioorg Med Chem Lett, 2001).

Legend:
[1] = target: Butyrylcholinesterase (Equus caballus, UniProt Q9N1N9)
Description: Inhibition of equine (Eq) Butyrylcholinesterase

[2] = target: T1, Acetylcholinesterase (Bos taurus, UniProt P23795)
T1 sequence (P23795 whole entry): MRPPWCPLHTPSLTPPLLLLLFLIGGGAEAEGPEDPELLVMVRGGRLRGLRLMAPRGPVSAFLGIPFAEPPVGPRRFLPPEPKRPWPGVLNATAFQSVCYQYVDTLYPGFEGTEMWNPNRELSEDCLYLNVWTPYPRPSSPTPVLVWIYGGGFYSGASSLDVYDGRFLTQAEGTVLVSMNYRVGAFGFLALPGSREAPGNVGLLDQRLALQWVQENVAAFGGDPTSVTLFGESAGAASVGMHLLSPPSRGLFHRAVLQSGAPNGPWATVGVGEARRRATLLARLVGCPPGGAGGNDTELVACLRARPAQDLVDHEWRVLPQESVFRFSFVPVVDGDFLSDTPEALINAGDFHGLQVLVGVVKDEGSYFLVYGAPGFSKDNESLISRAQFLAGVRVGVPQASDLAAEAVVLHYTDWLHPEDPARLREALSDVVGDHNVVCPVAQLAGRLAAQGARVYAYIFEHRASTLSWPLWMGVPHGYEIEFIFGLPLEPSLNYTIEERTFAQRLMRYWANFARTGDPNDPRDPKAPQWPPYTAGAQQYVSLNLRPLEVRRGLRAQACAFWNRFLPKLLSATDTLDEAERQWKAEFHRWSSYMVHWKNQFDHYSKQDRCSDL
Description: Inhibition of acetylcholinesterase (AChE) of fetal bovine serum (FBS)

Butyrylcholinesterase, sequence (Q9N1N9 whole entry): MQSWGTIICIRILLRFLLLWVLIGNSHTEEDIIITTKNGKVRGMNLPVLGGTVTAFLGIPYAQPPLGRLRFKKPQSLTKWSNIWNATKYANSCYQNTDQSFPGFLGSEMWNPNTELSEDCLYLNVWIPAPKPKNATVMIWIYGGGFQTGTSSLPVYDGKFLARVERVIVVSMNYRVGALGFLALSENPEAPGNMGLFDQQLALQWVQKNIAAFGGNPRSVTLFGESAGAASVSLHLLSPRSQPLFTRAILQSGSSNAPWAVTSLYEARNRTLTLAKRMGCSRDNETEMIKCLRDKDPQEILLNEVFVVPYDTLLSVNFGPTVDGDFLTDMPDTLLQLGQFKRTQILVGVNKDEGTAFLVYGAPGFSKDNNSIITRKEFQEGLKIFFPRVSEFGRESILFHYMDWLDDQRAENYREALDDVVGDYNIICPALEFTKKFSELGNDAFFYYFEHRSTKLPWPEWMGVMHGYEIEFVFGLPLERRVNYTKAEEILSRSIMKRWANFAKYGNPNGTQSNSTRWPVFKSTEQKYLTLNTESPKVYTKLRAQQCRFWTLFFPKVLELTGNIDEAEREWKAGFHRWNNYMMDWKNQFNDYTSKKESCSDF

Row | Structure (SMILES) | Ki [1] [nM] | Ki [2] [nM]
1 | c1ccc2c(SCCCCCCCSc3c4c(nc5ccccc35)CCCC4)c3c(nc2c1)CCCC3 | 380 | > 10000
2 | c1ccc2c(NCCCCSc3c4c(nc5ccccc35)CCCC4)c3c(nc2c1)CCCC3 | 40 | 650
3 | Clc1cc(Cl)c2nc3c(c(SCCCCCCCNc4c5c(nc6ccccc46)CCCC5)c2c1)CCCC3 | 80 | 290
4 | Clc1cc(Cl)c2c(NCCCCCCCSc3c4c(nc5ccccc35)CCCC4)c3c(nc2c1)CCCC3 | 250 | –
5 | c1ccc2c(NCCCCCCCNc3c4c(nc5ccccc35)CCCC4)c3c(nc2c1)CCCC3 | 2 | –
6 | Clc1cc(Cl)c2c(SCCCCCCNc3c4c(nc5ccccc35)CCCC4)c3c(nc2c1)CCCC3 | 45 | 120
7 | Nc1c2c(nc3cc(Cl)cc(Cl)c13)CCCC2 | 50 | 1
8 | c1ccc2c(NCCCCCCCSc3c4c(nc5ccccc35)CCCC4)c3c(nc2c1)CCCC3 | 35 | 340
